Entries after “also recorded” stand apart in the source; their conditions may differ. Like-named read-outs stand apart in the source and are kept apart here.
Legend:
[1] = biological target: T1, hen egg-white lysozyme (hewL) amyloid aggregates: gO/CFs vs. RFs (Gallus gallus, UniProt P00698); assay: Kinetic dye screening assay: dye fluorescence response during sigmoidal vs. biphasic amyloid assembly, ThT as reference; type: binding; conditions: for Oligomer (gO/CF) selectivity over fibrils: hewL amyloid assembly, sigmoidal vs. biphasic kinetics; for Fluorescence response to initial gO/CF (oligomer) phase of biphasic growth / Fluorescence response to RF nucleation and growth: hewL, pH 2, 52° C.; for Fluorescence response to initial gO/CF (oligomer) phase of biphasic growth: above COC (biphasic regime); for Fluorescence response to RF nucleation and growth: second phase of biphasic growth or sigmoidal growth
T1 construct: hen egg-white lysozyme (hewL); from tissue
T1 sequence (P00698 19-147): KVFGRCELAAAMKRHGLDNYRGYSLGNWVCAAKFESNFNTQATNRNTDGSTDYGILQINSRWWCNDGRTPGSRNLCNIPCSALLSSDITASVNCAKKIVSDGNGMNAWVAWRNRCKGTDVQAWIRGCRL
Excerpt: A kinetic assay that clearly delineates growth conditions dominated by gO/CF or RF formation as simple function of protein concentration was developed. This kinetic assay was used in conjunction with high-resolution (AFM or TEM) imaging of aggregate morphologies to identify dyes that display well-defined selectivity of gO/CFs over RFs (FIGS. 1A-1E).
The basis of the kinetic assay is the existence of a “critical oligomer concentration” or COC, distinct from and higher than the protein concentration required for fibril growth [Tatiana Miti, et al. Biomacromolecules (2015) 16:326-335]. Using both hen-egg white lysozyme and a dimeric Aβ construct, it was shown that crossing this COC causes a sharp transition in ThT kinetics from the ubiquitous “sigmoidal” growth kinetics of nucleated polymerization to lag-free bimodal kinetics. The initial phase of bimodal growth is dominated by gO/CF formation while the secondary upswing indicates RF nucleation and growth [Filip Hasecke, et al. Chem. Sci. (2018) 9: 5937-5948]. When below this COC HEWL grows RFS aggregates with a distinct lag phase before the start of growth. Monitoring dye responses both below and above the COC allows rapid determination whether a given fluorescent dye responds only to the initial gO/CF or subsequent RF phase of amyloid growth.
Kinetic transition is an indicator of oligomer formation (Hasecke F. et al., Chem. Sci., 2018 9:5937-5948). The onset of gO/CF formation is delineated by a threshold protein concentration referred to herein as the “critical oligomer concentration” or COC. […] No populations of gO/CFs are observed. In contrast, gO/CF formation above the COC has no lag periods and results in biphasic kinetics (saturating gO/CF kinetics is superimposed to sigmodal RF kinetics). AFM confirms that the initial phase represents gO/CF formation while the second phase indicates RF nucleation and growth. Using this transition from sigmoidal to biphasic kinetics provides an efficient assay for screening dyes for their response to these distinct aggregate species.
Instead of requiring isolation and stabilization of amyloid oligomers, the dye screening protocol proposed here takes the identification of two distinct amyloid assembly regimes with distinctly different assembly kinetics (see FIG. 6 and Hasecke, F., et al. Chemical Science, 2018. 9:5937-5948). […] Following the initial lag phase, this regime yields pure populations of “traditional” rigid fibrils (RFs). It lacks any detectable populations of metastable globular oligomers (gOs) or curvilinear fibrils (CFs) during any stage of fibril assembly. Upon crossing a threshold protein (or salt) concentration a second, oligomer-dominated regime emerges. This regime is characterized by lag-free formation of readily detectable populations of gOs and CFs during its initial phase, with RFs emerging in a second growth phase. The transition to this regime is characterized by a concurrent switch in ThT-monitored assembly kinetics from sigmoidal to biphasic kinetics (Hasecke, F., et al. Chemical Science, 2018. 9:5937-5948; Miti, T., et al. Biomacromolecules, 2015. 16:326-335; Foley, J., et al. J Chem Phys., 2013. 139:121901; Hill, S. E., et al. PLoS ONE, 2011. 6:e18171). Monitoring fluorescence responses of dyes to amyloid assembly under either sigmoidal or biphasic growth conditions provides a direct and straight-forward readout for their selectivity to oligomer over fibril formation.
Using the above transition in the model amyloid hewL a small subset of about one dozen dyes were screened for oligomer-selective responses. Oligomer-free sigmoidal kinetics provided the read-out for dye responses to pure fibril formation—relative to the ThT response recorded under the same conditions. Responsiveness of dyes to gO/CF formation was evaluated during the initial gO/CF phase of biphasic kinetics, as long as it was well separated from the second RF-related upswing. […]

[2] = biological target: T2, hen egg-white lysozyme (hewL) amyloid aggregates (Gallus gallus, UniProt P00698); assay: AFM imaging of hewL aggregate morphologies during biphasic growth in the presence of dye; conditions: 5 mg/ml hewL, pH 2, 52° C., CV 5 μM, listed as CV
T2 construct: hen egg-white lysozyme (hewL); from tissue
T2 sequence (P00698 19-147): as above
Excerpt: FIG. 8B contains AFM images from aliquots taken during biphasic amyloid growth in FIG. 8A from the CV wells at the indicated time points. […] This kinetic assay was used in conjunction with high-resolution (AFM or TEM) imaging of aggregate morphologies to identify dyes that display well-defined selectivity of gO/CFs over RFs (FIGS. 1A-1E). Using the above transition in the model amyloid hewL a small subset of about one dozen dyes were screened for oligomer-selective responses. Oligomer-free sigmoidal kinetics provided the read-out for dye responses to pure fibril formation—relative to the ThT response recorded under the same conditions. Responsiveness of dyes to gO/CF formation was evaluated during the initial gO/CF phase of biphasic kinetics, as long as it was well separated from the second RF-related upswing. Even this very limited and fairly arbitrary set of dyes yielded three different dyes with a modest level of oligomer-specific responses (FIG. 7). While encouraging, the level of oligomer selectivity, the overall fluorescence change upon either fibril or oligomer formation, or the rapid bleaching of the dyes under these growth conditions didn't warrant further investigation. […] It confirms that the progression of hewL aggregates during biphasic growth is not altered by the presence of CV.

[3] = system: amyloid aggregates (gO/CF and RF); conditions: cited from earlier work; for Response to gO/CF vs. RF aggregates (selectivity): literature / background statement

In the case of `CN(C)c1ccc(C(=C2C=CC(=[N+](C)C)C=C2)c2ccc(N(C)C)cc2)cc1` [crystal violet, tris(4-(dimethylamino)phenyl)methylium chloride], the “Oligomer (gO/CF) selectivity over fibrils” value (“Oligomer (gO/CF) selectivity” below) [1] was “oligomer-selective dye and noticeable oligomer selectivity and OSD and preferentially enhanced upon binding to gO/CFs”, the “Fluorescence response to initial gO/CF (oligomer) phase of biphasic growth” value (from here on “Fluorescence response to initial gO/CF”) [1] was “responds nearly exclusively to the initial (oligomer) phase; also recorded: identical response to amyloid growth prior to the onset of RF formation” and the “Fluorescence response to initial gO/CF” value ([1]; listed as CV) was “robust response to the initial gO/CF dominated phase”. The “Fluorescence response to initial gO/CF” value ([1]; listed as Crystal violet) was “closely match the kinetics of the initial gO/CF phase in ThT kinetics”, the “Fluorescence response to RF nucleation and growth” value [1] was “weak fibril response; also recorded: little or no response to the onset of RF formation; also recorded: level off” and the “Fluorescence response to RF nucleation and growth” value ([1]; listed as CV) was “lacks the upswing to subsequent RF nucleation and growth; also recorded: weak response to RF formation”. For the same molecule, the “Fluorescence response to RF nucleation and growth” value ([1]; listed as Crystal violet) was “very weak responses upon the onset of RF formation”, the “Temporal correlation of dye signal with ThT signal” value ([1]; sigmoidal and initial phase of biphasic growth of hewL) was “one-to-one temporal correlation” and the “Effect of dye on aggregate types / progression of aggregates (AFM)” value [2] was “not altered; also recorded: did not alter the types of aggregates observed”. The Amyloid staining ([3]; literature (Cooper 1969)) was “weak metachromatic amyloid stain”.

In the case of `N#CC(C#N)=Cc1cc2c3c(c1)CCCN3CCC2` [DCVJ, 9-(Dicyanovinyl) Julolidine], the “Response to gO/CF vs. RF aggregates (selectivity)” value (from here on “Response … (selectivity)”) [3] is given as “some oligomer selectivity”.

For `Cc1ccc2c(c1)sc(-c1ccc(N(C)C)cc1)[n+]2C.[Cl-]` [ThT, reference compound], the “Fluorescence response to initial gO/CF” value [1] is listed as “robust response to the initial gO/CF dominated phase; also recorded: expected biphasic behavior as the sample grows gO/CFs up to a first plateau; also recorded: weak biphasic response; also recorded: identical response to amyloid growth prior to the onset of RF formation”, the “Fluorescence response to RF nucleation and growth” value [1] is listed as “readily picked up; also recorded: second upswing and plateau indicating the onset of RF nucleation and growth; also recorded: continues to rise following RF nucleation” and the “Response … (selectivity)” value [3] is listed as “responds to both gO/CF and RF aggregates, albeit with different sensitivities; also recorded: highly skewed towards late-stage amyloid fibrils”. For the same molecule, the “Response … (selectivity)” value ([3]; listed as Thioflavin T) was “considerably less enhanced by gO/CF vs. RF formation” and the “Response … (selectivity)” value ([3]; listed as thioflavin T) was “preferentially respond to late stage RFs instead of gOs and CFs”.

For `CC1=C/C(=C(\c2ccc(N)c(S(=O)(=O)[O-])c2)c2ccc(N)c(S(=O)(=O)O)c2)C=C(S(=O)(=O)[O-])C1=N.[Na+].[Na+]` [acid fuchsin, reference compound], the “Oligomer (gO/CF) selectivity” value [1] was “(weak) select responses to oligomer-dominated phase”.

For `Nc1c(/N=N/c2ccc(-c3ccc(/N=N/c4cc(S(=O)(=O)O)c5ccccc5c4N)cc3)cc2)cc(S(=O)(=O)O)c2ccccc12` [congo red], the “Response … (selectivity)” value [3] is given as “preferentially respond to late stage RFs instead of gOs and CFs”.

With `O=C(O)c1cc(/C=C/c2ccc(/C=C/c3ccc(O)c(C(=O)O)c3)cc2)ccc1O` [X-34, reference compound] the “Oligomer (gO/CF) selectivity” value [1] was “(weak) select responses to oligomer-dominated phase”.

In the case of `CN(C)c1ccc2cc3ccc(N(C)C)cc3nc2c1` [acridine orange, reference compound], the “Oligomer (gO/CF) selectivity” value [1] was “(weak) select responses to oligomer-dominated phase”.

For `N#CC(C#N)=Cc1ccc(-c2ccc(-c3ccc(O)cc3)s2)s1` [NIAD-4], the “Response … (selectivity)” value [3] is listed as “preferentially respond to late stage RFs instead of gOs and CFs”.

With methyl violet the “Oligomer (gO/CF) selectivity” value [1] was “noticeable oligomer selectivity”.
